Legend:
[1] = test system: mustard beetles (Phaedon cochleariae Fab); test: Relative toxicity to mustard beetles, topical micro drop; assay type: in vivo; details: for Relative Toxicity, Mustard Beetles: 5-benzyl-3-furylmethyl (1R)-trans-chrysanthemate = 1000, inverse ratio of LD50, topical, 48 hours
Experimental: (§1) The toxicity of these new esters was tested by the procedure described in detail in our above mentioned application and the following results were obtained:
(§2) The insecticidal acitivity of the esters of the invention was assessed against houseflies and mustard beetles using the following techniques:
Acetone solutions of the test compound were applied ventrally to adult mustard beetles using a micro drop applicator. The treated insects were maintained for 48 hours after which time kill is assessed. Two replicates of 40 to 50 mustard beetles were used at each dose level and 3 to 4 dose levels were used for each compound. Again, LD50 values were calculated and relative toxicities were calculated for the inverse ratios of LD50 (see Elliott et al, J. Sci. Food Agric. 20, 561, (1969)).
(§3) Relative toxicities were calculated by comparison with 5-benzyl-3-furylmethyl(1R)-trans-chrysanthemate which is one of the most toxic chrysanthemate esters known to houseflies and mustard beetles, its toxicity being about 24 times that of allethrin to houseflies and 65 times that of allethrin to mustard beetles.

[2] = test system: houseflies (Musca domestica); test: Relative toxicity to houseflies, topical drop on thorax; assay type: in vivo; details: for Relative Toxicity, Houseflies: 5-benzyl-3-furylmethyl (1R)-trans-chrysanthemate = 1000, inverse ratio of LD50, topical, female flies
Experimental: as §1, §2
(§4) Female flies were treated on the thorax with a one microliter drop of insecticide dissolved in acetone. Two replicates of 15 flies were used at each dose rate and 6 dose rates were used per compound under test. After treatment, the flies were maintained at a temperature of 20° C.±1° and kill was assessed 24 and 48 hours after treatment. LD50 values were calculated in micrograms of insecticide per fly and relative toxicities were calculated from the inverse ratios of the LD50 values. (see Sawicki et al, Bulletin of the World Health Organization, 35,893, (1966) and Sawicki et al, Entomologia and Exp. Appl. 10, 253, (1967)).
as §3

[3] = test system: female flies (houseflies); test: Synergisability with Sesamex, 5 micrograms per fly 3 hours before; assay type: in vivo, Musca domestica; details: for LD50 Active compound (flies pretreated with synergist): 5 micrograms per fly Sesamex 3 hours before; for Approx. synergist factor: Sesamex, 5 micrograms per fly; for LD 50 active compound only: without synergist
Experimental: The following results were obtained
By repeating the above synergisability test but pretreating flies instead with 5 micrograms per fly of the synergist Sesamex 3 hours before applying the pyrethroid, the following results were obtained: […]

[4] = Mammalian toxicity in mice; details: mouse, in vivo; oral acute
[5] = Mammalian toxicity in rats; details: rat, in vivo
[6] = test system: female flies (houseflies); test: Synergisability with sesamex, 2 μg per fly pretreatment; assay type: in vivo, Musca domestica; details: for LD 50 active compound + synergist: pretreated with 2 μg. per fly sesamex; for Approx. Synergistic factor: sesamex, 2 μg. per fly; for LD 50 active compound only: untreated flies
Experimental: as §4, with “values.” for “values. (see Sawicki et al, Bulletin of the World Health Organization, 35,893, (1966) and Sawicki et al, Entomologia and Exp. Appl. 10, 253, (1967)).”

[7] = test system: American cockroach, Periplaneta americana L.; test: Toxicity relative to bioresmethrin against American cockroach; assay type: in vivo; details: for Relative Toxicity (American cockroach): Bioresmethrin = 100
female Musca domestica = test: Topical application of pyrethroids alone and with piperonyl butoxide or Tropital; assay type: in vivo; details: for LD 50 active compound only: alone; for LD50 Active compound + piperonyl butoxide (1:5): with piperonyl butoxide (1:5)
Description: Topical application of pyrethroids alone and in combination with synergist gave the following LD50 results in micrograms with female Musca domestica: […]

[8] = test system: houseflies (M. domestica); test: Insecticidal activity by spraying in a Kearns and March chamber; assay type: in vivo, Musca domestica; details: for LD50: compound alone, odourless kerosene spray
Experimental: The insecticidal activity of DP 870 against houseflies was tested by spraying M. domestica in a Kearns and March chamber with a solution of a compound in odourless kerosene, and LD50 values calculated. The activity of DP 870 synergised with piperonylbutoxide was also measured and the results compared with the LD50 value for compound P21H of Example 18.

[9] = test system: Ephestia kuhniella and Venturia canescens; test: Selective toxicity to Ephestia compared to Venturia (LD50 ratio); assay type: in vivo; details: for Selectivity (ratio of toxicity to Ephestia compared to Venturia): ratio from relative toxicity (LD50)
Description: Experiments to compare the relative toxicity (LD50) of compound P39E with certain related compounds have been carried out towards both Ephestia kuhniella and Venturia canescens so that the relative toxicity to the two species can be calculated. […]

[10] = test system: Boophilus microplus, Biarra strain; test: Acaricidal activity: inhibition of egg laying of injected engorged female ticks; assay type: in vivo; details: Rhipicephalus microplus, 336 h, 14 days after injection, read-out: % Inhibition (egg laying ability)
Description: Acaricidal activity has been measured by injecting solutions of test compound P39E into engorged female ticks, Boophilus microplus, Biarra strain and the ability of the female to lay eggs 14 days after injection determined. The results are exposed as a percent of inhibition of egg laying ability compared to untreated control ticks.

CC1(C)C(C=C(Cl)Cl)C1C(=O)OC(C#N)c1cccc(Oc2ccccc2)c1 (racemic) [Compound P21P, (αRS)-cyano-3-phenoxybenzyl-(1RS)-cis-trans-3-(2,2-dichlorovinyl)-2,2-dimethyl cyclopropane carboxylate]
Relative Toxicity, Mustard Beetles [1]: ≥ 5000
Relative Toxicity, Houseflies [2]: 1300
LD50 Active compound (flies pretreated with synergist) [3]: 0.00088 µg
Approx. synergist factor [3]: ~8.3
LD 50 active compound only [3]: 0.0073 µg

CC1(C)[C@H](C=C(Cl)Cl)[C@H]1C(=O)OCc1cccc(Oc2ccccc2)c1 (relative stereo)
LD50 [4]: > 300 mg/kg
LD50 ([5]; po): > 300 mg/kg

C#CCc1ccc(COC(=O)[C@@H]2[C@@H](C=C(Cl)Cl)C2(C)C)o1 (relative stereo)
LD50 [4]: ~300 mg/kg
LD50 ([5]; po): 300 mg/kg

CC1(C)[C@H](C=C(Cl)Cl)[C@H]1C(=O)OCc1coc(Cc2ccccc2)c1 (relative stereo)
LD50 [4]: 100 mg/kg

CC1(C)[C@H](C(=O)OCc2cccc(Oc3ccccc3)c2)[C@@H]1C=C(Cl)Cl (relative stereo) [Compound P21G]
Relative Toxicity, Mustard Beetles [1]: 780
Relative Toxicity, Houseflies [2]: 680
LD 50 active compound + synergist [6]: 0.00037 μg. per female fly
Approx. Synergistic factor [6]: ~22
LD 50 active compound only [6]: 0.0083 μg. per female fly

CC(C)=C[C@@H]1[C@@H](C(=O)OCc2coc(Cc3ccccc3)c2)C1(C)C [Bioresmethrin, 5-benzyl-3-furylmethyl (1R)--trans-chrysanthemate, reference compound]
toxicity, times that of allethrin, to mustard beetles ([1]; relative to allethrin): ~65 times
LD50 (American cockroach) ([7]; in vivo): 2.5 μg/insect
toxicity, times that of allethrin, to houseflies ([2]; relative to allethrin): about 24 times
LD50 ([5]; iv): 340 mg/kg
LD50 ([5]; po): > 8000 mg/kg
Approx. Synergistic factor [6]: ~9.4

CC/C=C\[C@@H]1[C@@H](C(=O)OCc2coc(Cc3ccccc3)c2)C1(C)C [Compound A]
Relative Toxicity, Mustard Beetles [1]: 2000
LD 50 active compound only (female Musca domestica): 0.034 µg
LD50 Active compound + piperonyl butoxide (1:5) (female Musca domestica): 0.015 µg
Relative Toxicity, Houseflies [2]: 1700
LD50 ([5]; iv): 120 mg/kg
LD50 ([5]; po): 800 to 1000 mg/kg
LD 50 active compound + synergist [6]: 0.00033 μg. per female fly
Approx. Synergistic factor [6]: ~13
LD 50 active compound only [6]: 0.0042 μg. per female fly

CC1(C)C(C=C(Cl)Cl)C1C(=O)OCc1cccc(Oc2ccccc2)c1 (centres unmarked) [Compound P21H]
Relative Toxicity, Mustard Beetles [1]: 740
LD 50 active compound only (female Musca domestica): 0.031 µg
LD50 Active compound + Tropital (1:5) (female Musca domestica; with Tropital (1:5)): 0.019 µg
LD50 Active compound + piperonyl butoxide (1:5) (female Musca domestica): 0.018 µg
LD50 [8]: 0.022 μg/female
Relative Toxicity, Houseflies [2]: 660

CC1(C)[C@H](C(=O)OCc2cccc(Oc3ccccc3)c2)[C@@H]1C=C(Cl)Cl [Compound P29L]
Relative Toxicity (American cockroach) [7]: 2,100
Selectivity (ratio of toxicity to Ephestia compared to Venturia) [9]: 2.3

CC1(C)[C@H](C=C(Cl)Cl)[C@H]1C(=O)OCc1cccc(Oc2ccccc2)c1 [Compound P29M, 3-Phenoxybenzyl-(1R)--trans-2,2-dimethyl-3-(2,2-dichlorovinyl)cyclopropanecarboxylate]
Relative Toxicity (American cockroach) [7]: 800
Relative Toxicity, Houseflies [2]: 740
Selectivity (ratio of toxicity to Ephestia compared to Venturia) [9]: 2.8

CC1(C)[C@H](C(=O)OC(C#N)c2cccc(C(=O)c3ccccc3)c2)[C@@H]1C=C(Br)Br (stereo partly drawn) [Compound P39E, (αRS)-cyano-3-benzoylbenzyl(1R)cis-2,2-dimethyl-3-(2,2-dibromovinyl)-cyclopropane carboxylate]
inhibition at 100 µg/mL ([10]; 0.1 mg/ml): 0%
inhibition at 1000 µg/mL ([10]; 1 mg/ml): 90%
inhibition at 10000 µg/mL ([10]; 10 mg/ml): 100%
Relative Toxicity, Mustard Beetles [1]: 2200
Relative Toxicity, Houseflies [2]: 330
selectivity in words ([9]; Ephestia over Venturia): very marked and quite unexpected selectivity
Selectivity (ratio of toxicity to Ephestia compared to Venturia) [9]: 7.9

CC1(C)[C@H](C=C(F)F)[C@H]1C(=O)OCN1C(=O)C2=C(CCCC2)C1=O [DP 870]
LD50 [8]: 0.09 μg/female
LD50, plus piperonyl-butoxide ([8]; plus piperonyl butoxide (1:5 w/w)): 0.04 μg/female

CC1(C)C(C=C(Br)Br)C1C(=O)OC(C#N)c1cccc(Oc2ccccc2)c1 [P29B (crystalline isomer), (αS)-cyano-3-phenoxybenzyl(1R)cis-2,2-dimethyl-3-(2,2-dibromovinyl)cyclopropane carboxylate]
Relative Toxicity, Mustard Beetles [1]: 14000
Relative Toxicity, Houseflies [2]: 23000
Selectivity (ratio of toxicity to Ephestia compared to Venturia) [9]: 3.6
LD50 Active compound (flies pretreated with synergist) [3]: 0.00023 µg
Approx. synergist factor [3]: ~7
LD 50 active compound only [3]: 0.0016 µg

— patent US4622337A, “2,2-dimethyl-3-(2-halovinyl)cyclopropane carboxlic acid ester pesticides” (priority 1972, dated 1986)
